Measured values taken from patent publication US8802597B2, “Herbicidal pyrimidines” (E I du Pont de Nemours and Company, priority 2003, dated 2014).

Columns and labels:
Type in all cases: in vivo
[1] = system: chickweed (Stellaria media); experiment: Test C postemergence
Method in brief: (§1)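 Greenhouse herbicide screen, visual readout. Compound in solvent/surfactant applied preemergence at planting or postemergence to 1- to 4-leaf plants; assessed at 12–14 days on a 0–100 control scale.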

[2] = system: cocklebur (Xanthium strumarium); experiment: Test C pre/postemergence; conditions: for Plant response rating, Cocklebur: Preemergence
Method in brief: as §1

corn (Zea mays) = experiment: Test C pre/postemergence; conditions: for Plant response rating, Corn: Preemergence
Method in brief: as §1

[3] = system: lambsquarters (Chenopodium album); experiment: Test C pre/postemergence; conditions: for Plant response rating, Lambsquarters: Preemergence
Method in brief: as §1

[4] = system: common ragweed (Ambrosia elatior); experiment: Test C pre/postemergence; conditions: for Plant response rating, Ragweed: Preemergence, scale 0 to 100, 0 no effect, 100 complete control
Method in brief: as §1

[5] = system: velvetleaf (Abutilon theophrasti); experiment: Test A pre/postemergence
Method in brief: (§2)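 Ratings: 0 = no effect, 100 = complete control, assessed visually about ten days post-treatment in a greenhouse. Applications: soil-directed preemergence spray and postemergence spray on 1- to 2-leaf plants, both using a surfactant-containing non-phytotoxic solvent formulation.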

[6] = system: crabgrass (Digitaria sanguinalis); experiment: Test A pre/postemergence
Method in brief: as §2

[7] = system: giant foxtail (Setaria faberi); experiment: Test A pre/postemergence
Method in brief: as §2

[8] = system: redroot pigweed (Amaranthus retroflexus); experiment: Test A pre/postemergence
Method in brief: as §2

[9] = system: barnyardgrass (Echinochloa crus-galli); experiment: Test A pre/postemergence
Method in brief: as §2

[10] = system: morningglory (Ipomoea spp.); experiment: Test A pre/postemergence
Method in brief: as §2

[11] = Postemergence, 125 g ai/ha, scale 0 to 100 (0 no effect, 100 complete control)
[12] = 16 g ai/ha, scale 0 to 100, 0 no effect, 100 complete control
[13] = 31 g ai/ha, scale 0 to 100, 0 no effect, 100 complete control
[14] = 62 g ai/ha, scale 0 to 100, 0 no effect, 100 complete control
[15] = Postemergence, 125 g ai/ha, 0 to 100 scale (0 no effect, 100 complete control)
[16] = Postemergence, 500 g ai/ha, 0 to 100 scale (0 no effect, 100 complete control)
[17] = Preemergence, 125 g ai/ha, 0 to 100 scale where 0 is no effect and 100 is complete control, approximately ten days
[18] = Preemergence, 500 g ai/ha, 0 to 100 scale where 0 is no effect and 100 is complete control, approximately ten days

CCCCOC(=O)c1nc(C2CC2)nc(N)c1Cl [Compound 76]
55: Plant response rating (scale of 0 to 100), Corn (corn (Zea mays); Postemergence, 62 g ai/ha)
75: Plant response rating, Crabgrass [6, 18] | Plant response rating, Barnyardgrass [9, 17]
10: Plant response rating (scale of 0 to 100), Corn (corn (Zea mays); Postemergence, 16 g ai/ha)
80: Plant response rating, Lambsquarters [3, 14] | Plant response rating, Lambsquarters ([3]; 125 g ai/ha, scale 0 to 100) | Plant response rating (scale of 0 to 100), Ragweed ([4]; Postemergence, 16 g ai/ha) | Plant response rating, Ragweed ([4]; 62 g ai/ha) | Plant response rating, Velvetleaf [5, 15] | Plant response rating, Pigweed [8, 17]
30: Plant response rating, Crabgrass [6, 17]
90: Plant response rating, Cocklebur [2, 13] | Plant response rating, Cocklebur [2, 14] | Plant response rating, Cocklebur ([2]; 125 g ai/ha, scale 0 to 100) | Plant response rating (scale of 0 to 100), Lambsquarters ([3]; Postemergence, 16 g ai/ha) | Plant response rating (scale of 0 to 100), Ragweed ([4]; Postemergence, 31 g ai/ha) | Plant response rating, Velvetleaf [5, 17] | Plant response rating, Foxtail, Giant [7, 15] | Plant response rating, Foxtail, Giant [7, 16] | Plant response rating, Pigweed [8, 18] | Plant response rating, Barnyardgrass [9, 15] | Plant response rating, Barnyardgrass [9, 16] | Plant response rating, Barnyardgrass [9, 18] | Plant response rating, Morningglory [10, 15]
85: Plant response rating, Foxtail, Giant [7, 18] | Plant response rating, Pigweed [8, 15]
45: Plant response rating (scale of 0 to 100), Chickweed ([1]; 31 g ai/ha) | Plant response rating, Corn (corn (Zea mays); 125 g ai/ha, scale 0 to 100) | Plant response rating, Crabgrass [6, 15]
70: Plant response rating (scale of 0 to 100), Chickweed ([1]; 62 g ai/ha) | Corn plant response rating (corn (Zea mays); [11]) | Plant response rating, Lambsquarters [3, 12] | Plant response rating, Lambsquarters [3, 13] | Plant response rating, Crabgrass [6, 16] | Plant response rating, Foxtail, Giant [7, 17]
0: Plant response rating, Corn (corn (Zea mays); [12]) | Plant response rating, Corn (corn (Zea mays); [13])
65: Plant response rating, Cocklebur [2, 12]
60: Plant response rating, Ragweed ([4]; 31 g ai/ha)
100: Plant response rating (scale of 0 to 100), Cocklebur ([2]; Postemergence, 16 g ai/ha) | Plant response rating (scale of 0 to 100), Cocklebur ([2]; Postemergence, 31 g ai/ha) | Plant response rating (scale of 0 to 100), Cocklebur ([2]; Postemergence, 62 g ai/ha) | Cocklebur plant response rating [2, 11] | Plant response rating (scale of 0 to 100), Lambsquarters ([3]; Postemergence, 62 g ai/ha) | Lambsquarters plant response rating [3, 11] | Ragweed plant response rating [4, 11] | Plant response rating, Ragweed [4] | Plant response rating, Velvetleaf [5, 16] | Plant response rating, Velvetleaf [5, 18] | Plant response rating, Morningglory [10, 17] | Plant response rating, Morningglory [10, 18]
95: Chickweed plant response rating ([1]; 125 g ai/ha, scale 0 to 100 (0 no effect, 100 complete control)) | Plant response rating (scale of 0 to 100), Lambsquarters ([3]; Postemergence, 31 g ai/ha) | Plant response rating (scale of 0 to 100), Ragweed ([4]; Postemergence, 62 g ai/ha) | Plant response rating, Pigweed [8, 16] | Plant response rating, Morningglory [10, 16]
50: Plant response rating, Ragweed ([4]; 16 g ai/ha)
35: Plant response rating (scale of 0 to 100), Chickweed ([1]; 16 g ai/ha) | Plant response rating (scale of 0 to 100), Corn (corn (Zea mays); Postemergence, 31 g ai/ha) | Plant response rating, Corn (corn (Zea mays); [14])
